Reference: ChEMBL document CHEMBL5385963, “Enhanced inhibitory activity of compounds containing purine scaffolds compared to protein kinase CK2α considering crystalline water” (RSC Med Chem, 2024)

Target: Casein kinase II subunit alpha (Homo sapiens, UniProt P68400)
Assay: Inhibition of N-terminal GST-fusion protein tagged full length human CK2alpha1 (1 to 391 residues) expressed in baculovirus expression system co-expressing human His-tagged CK2beta using CK2tide as substrate incubated for 1 hrs in presence of ATP by off-chip mobility shift assay

Chain of Casein kinase II subunit alpha (P68400 whole entry, the tested form may be a part): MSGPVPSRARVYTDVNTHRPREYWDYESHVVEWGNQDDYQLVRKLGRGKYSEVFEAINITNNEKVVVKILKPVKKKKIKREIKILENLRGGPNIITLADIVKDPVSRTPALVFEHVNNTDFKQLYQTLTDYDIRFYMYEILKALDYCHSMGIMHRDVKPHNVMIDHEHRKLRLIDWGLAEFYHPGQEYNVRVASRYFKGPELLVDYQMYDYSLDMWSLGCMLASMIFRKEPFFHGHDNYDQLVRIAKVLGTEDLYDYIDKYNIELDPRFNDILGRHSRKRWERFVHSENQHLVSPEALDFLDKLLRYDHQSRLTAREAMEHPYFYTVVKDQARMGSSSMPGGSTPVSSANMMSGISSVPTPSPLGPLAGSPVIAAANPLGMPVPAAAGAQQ

| SMILES | IC50 |
| --- | --- |
| NC(=O)c1nc(/C=C/C(=O)O)nc2c1[nH]c(=O)n2-c1ccccc1 | 1 µM |
| NC(=O)c1nc(CCC(=O)O)nc2c1[nH]c(=O)n2-c1ccccc1 | 15 µM |
| NC(=O)c1nc(C(=O)O)nc2c1[nH]c(=O)n2-c1ccccc1 | > 30 µM |
| NC(=O)c1nc(-c2cccc(C(=O)O)c2)nc2c1[nH]c(=O)n2-c1ccc(Cl)cc1 | 5.4 µM |
| NC(=O)c1nc(-c2ccc(C(=O)O)cc2)nc2c1[nH]c(=O)n2-c1ccc([N+](=O)[O-])cc1 | > 30 µM |
| COc1ccc(-n2c(=O)[nH]c3c(C(N)=O)nc(-c4cccc(C(=O)O)c4)nc32)cc1 | 2.6 µM |
| CN(C)c1ccc(-n2c(=O)[nH]c3c(C(N)=O)nc(-c4ccc(C(=O)O)cc4)nc32)cc1 | 4.3 µM |
| NC(=O)c1nc(-c2cccc(C(=O)O)c2)nc2c1[nH]c(=O)n2-c1ccc(F)cc1 | 0.18 µM |
| NC(=O)c1nc(-c2cccc(C(=O)O)c2)nc2c1[nH]c(=O)n2-c1ccccc1 | 1 µM |
| COc1ccc(-n2c(=O)[nH]c3c(C(N)=O)nc(-c4ccc(C(=O)O)cc4)nc32)cc1 | 9.4 µM |

Continued, values first:

| IC50 | SMILES |
| --- | --- |
| 0.38 µM | NC(=O)c1nc(-c2cccc(C(=O)O)c2)nc2c1[nH]c(=O)n2-c1ccc([N+](=O)[O-])cc1 |
| > 30 µM | N#Cc1ccc(-n2c(=O)[nH]c3c(C(N)=O)nc(-c4ccc(C(=O)O)cc4)nc32)cc1 |
| > 30 µM | NC(=O)c1nc(CC(=O)O)nc2c1[nH]c(=O)n2-c1ccccc1 |
| > 30 µM | NC(=O)c1nc(CCCC(=O)O)nc2c1[nH]c(=O)n2-c1ccccc1 |
| 0.4 µM | N#Cc1ccc(-n2c(=O)[nH]c3c(C(N)=O)nc(-c4cccc(C(=O)O)c4)nc32)cc1 |
| 11 µM | Cc1ccc(-n2c(=O)[nH]c3c(C(N)=O)nc(-c4ccc(C(=O)O)cc4)nc32)cc1 |
| 0.62 µM | Cc1ccc(-n2c(=O)[nH]c3c(C(N)=O)nc(-c4cccc(C(=O)O)c4)nc32)cc1 |
| 14 µM | NC(=O)c1nc(-c2ccc(C(=O)O)cc2)nc2c1[nH]c(=O)n2-c1ccccc1 |
| > 30 µM | NC(=O)c1nc(-c2ccc(C(=O)O)cc2)nc2c1[nH]c(=O)n2-c1ccc(Cl)cc1 |
| 18 µM | COc1cccc(-n2c(=O)[nH]c3c(C(N)=O)nc(-c4ccc(C(=O)O)cc4)nc32)c1 |
| > 30 µM | NC(=O)c1nc(-c2ccc(C(=O)O)cc2)nc2c1[nH]c(=O)n2-c1ccc(F)cc1 |
| 1.9 µM | COc1cccc(-n2c(=O)[nH]c3c(C(N)=O)nc(-c4cccc(C(=O)O)c4)nc32)c1 |
